The values that follow come from ChEMBL document CHEMBL1201862, “PubChem BioAssay data set” (2004).

Test systems include UACC-257; SN12C; IGROV-1; DMS-273; CCRF-CEM; M19-MEL; DLD-1; SNB-78; SW-620; DMS-114; NCI/ADR-RES; UO-31; OVCAR-4; 786-0; TK-10; KM-20L2; DU-145; PC-3; MDA-MB-435; T47D.
What all share (test): growth of human tumour cells (NCI), 48 h

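Exposure lasted 48 hours, with cells grown in 96-well plates and compounds tested at five concentrations. Abbreviation: GI50, concentration required for 50% inhibition of growth.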 Active and inactive are the calls of the source. No stated cut-off is given here; in the data, active = GI50 up to about 1.1 µM and inactive = higher. Some results are limits rather than exact numbers.

`C#CCn1c(=O)c(C#N)c(O)c2cc3ccccc3nc21`: the GI50 in the assay with UACC-257, with SN12C, with IGROV-1, with DMS-273, with CCRF-CEM and in the assay on M19-MEL was > 100 µM (inactive) throughout. Further, the GI50 with DLD-1, in the assay with SNB-78, in the assay on SW-620, in the assay with DMS-114, in the assay with NCI/ADR-RES and in the assay with UO-31 was > 100 µM (inactive) throughout. The GI50 in the assay with OVCAR-4 was > 10 µM (inactive).
`COc1c2c(c(O)c3c4c(c(C)cc13)C1OC3(C(OC)OC5CC(C)(O)C(OC6CC(C)(O)C(O)C(C)O6)C(C)O5)OC1C(OC)(O4)C31CO1)C(=O)C(O)CC2OC1CC(C)(O)C(OC(C)=O)C(C)O1` (stereo not given): the GI50 in the assay with UACC-257, in the assay on SN12C, in the assay on IGROV-1, with DMS-273, in the assay on CCRF-CEM and in the assay with M19-MEL was < 0.01 µM (active) throughout. Besides, the GI50 in the assay on 786-0 was < 0.01 µM (active); in the assay with TK-10, < 0.01 µM (active); in the assay on DLD-1, 0.01 µM (active); with SNB-78, < 0.01 µM (active); with SW-620, < 0.01 µM (active); with DMS-114, < 0.01 µM (active). Moreover, the GI50 in the assay with KM-20L2 is < 0.01 µM (active); in the assay on UO-31 it was 0.0356 µM (active); in the assay with OVCAR-4, < 0.01 µM (active).
For `CSC(=N)NNC(=O)CCC(=O)Nc1ccccc1C(F)(F)F`, the GI50 in the assay on UACC-257, in the assay with SN12C, in the assay with IGROV-1, with DMS-273, with CCRF-CEM and in the assay with M19-MEL was > 100 µM (inactive) in each case. For the same compound, the GI50 with 786-0 was > 100 µM (inactive); with TK-10, > 100 µM (inactive); with DLD-1, > 100 µM (inactive); in the assay with SNB-78, > 61.5 µM (inactive); in the assay on SW-620, > 82.2 µM (inactive); in the assay with DMS-114, > 100 µM (inactive). The GI50 is > 44.7 µM (inactive) in the assay with KM-20L2, > 100 µM (inactive) in the assay with UO-31 and > 100 µM (inactive) with OVCAR-4.
As to `C(/C=N/c1ccccc1)=C(/Nc1ccccc1)C12CC3CC(CC(C3)C1)C2`, the GI50 in the assay on UACC-257 was 27.9 µM (inactive); with SN12C it was 18.8 µM (inactive); with DU-145 it was 19.3 µM (inactive); in the assay on IGROV-1, 17.6 µM (inactive); with PC-3, 14.9 µM (inactive); with CCRF-CEM it was 2.72 µM (inactive). Also, the GI50 was 15 µM (inactive) in the assay on 786-0; 21.4 µM (inactive) in the assay with TK-10; 14 µM (inactive) in the assay on SW-620; 19.3 µM (inactive) with NCI/ADR-RES; 15.2 µM (inactive) with MDA-MB-435; 15.1 µM (inactive) in the assay on UO-31. Moreover, the GI50 is 15.3 µM (inactive) in the assay on T47D and 16.3 µM (inactive) in the assay with OVCAR-4.
Regarding `CCN(CC)CC(=N)N(CC)c1ccccc1`, the GI50 was 43.6 µM (inactive) with UACC-257; > 100 µM (inactive) in the assay with SN12C; > 100 µM (inactive) with IGROV-1; > 100 µM (inactive) in the assay on CCRF-CEM; > 100 µM (inactive) in the assay with M19-MEL; > 100 µM (inactive) in the assay on 786-0. Besides, the GI50 in the assay on TK-10, in the assay with DLD-1, in the assay on SNB-78, with SW-620, in the assay with DMS-114 and in the assay on KM-20L2 was > 100 µM (inactive) throughout. The GI50 with UO-31 and in the assay on OVCAR-4 was > 100 µM (inactive) each time.
On to `OC12c3ccccc3C1CCCCCC21OCCCO1` (stereo not given), for which the GI50 with UACC-257, in the assay on SN12C, in the assay on IGROV-1, with DMS-273, in the assay on CCRF-CEM and in the assay on M19-MEL was > 100 µM (inactive) throughout. The GI50 in the assay on 786-0, with TK-10, with DLD-1, in the assay with SNB-78, in the assay on SW-620 and with DMS-114 was > 100 µM (inactive) each time. Besides, the GI50 in the assay with KM-20L2, in the assay with UO-31 and with OVCAR-4 was > 100 µM (inactive) in each case.
As for `O=C1NC(c2cccc3ccccc23)Nc2ccc(O)cc21` (stereo not given), the GI50 is 23.4 µM (inactive) with UACC-257; 39.9 µM (inactive) in the assay on SN12C; 35.1 µM (inactive) in the assay on IGROV-1; 10.4 µM (inactive) in the assay with DMS-273; 20.2 µM (inactive) in the assay on CCRF-CEM; 28.6 µM (inactive) in the assay on M19-MEL. In addition, the GI50 is 33.5 µM (inactive) in the assay with DLD-1; 40.3 µM (inactive) in the assay on SNB-78; 17.6 µM (inactive) with SW-620; 7.35 µM (inactive) with DMS-114; 16 µM (inactive) with NCI/ADR-RES; 40.3 µM (inactive) with KM-20L2. In addition, the GI50 is 30.2 µM (inactive) in the assay on UO-31 and 1.1 µM (active) in the assay on OVCAR-4.
Take `O=Cc1ccc(CCl)cc1`: the GI50 in the assay on UACC-257 was 17.7 µM (inactive); in the assay with IGROV-1 it was 20.8 µM (inactive); with DMS-273 it was 19.8 µM (inactive); in the assay on CCRF-CEM, 12.4 µM (inactive); with M19-MEL, 17.3 µM (inactive); with TK-10, 22.1 µM (inactive). Also, the GI50 in the assay on DLD-1 is 16.1 µM (inactive); in the assay with SNB-78, 16.5 µM (inactive); in the assay with SW-620 it was 21.5 µM (inactive); in the assay with DMS-114, 6.93 µM (inactive); in the assay with KM-20L2, 23.6 µM (inactive); in the assay with UO-31, 16.7 µM (inactive).
Regarding `O=C(NC1C2CC3CC(C2)CC1C3)c1cc(/C=C/c2ccccc2)nc(S)n1` (stereo not given), the GI50 in the assay with UACC-257, in the assay with IGROV-1, in the assay with DMS-273, in the assay on CCRF-CEM, with M19-MEL and with TK-10 was > 100 µM (inactive) throughout. For the same compound, the GI50 with DLD-1, in the assay with SNB-78, in the assay with SW-620, with DMS-114, in the assay on KM-20L2 and with UO-31 was > 100 µM (inactive) in each case. In addition, the GI50 with OVCAR-4 was > 100 µM (inactive).
As for `O=C(NC1C(O)C(O)C(CO)OC1n1cc(F)c(=O)[nH]c1=O)OCc1ccccc1` (stereo not given), the GI50 in the assay on UACC-257 is > 100 µM (inactive); in the assay with SN12C it was > 100 µM (inactive); in the assay on DMS-273, > 100 µM (inactive); in the assay with CCRF-CEM it was 22.2 µM (inactive); in the assay with TK-10 it was > 100 µM (inactive); in the assay with DLD-1 it was > 100 µM (inactive). Moreover, the GI50 with SNB-78, in the assay with SW-620, with DMS-114, in the assay on KM-20L2 and in the assay with OVCAR-4 was > 100 µM (inactive) throughout.
`CCCCC(NC(=O)CC)C(=O)O` (stereo not given): the GI50 with UACC-257, in the assay on SN12C, with IGROV-1, in the assay on DMS-273, in the assay on CCRF-CEM and with M19-MEL was > 100 µM (inactive) throughout. Also, the GI50 in the assay with DLD-1, in the assay with SNB-78, with SW-620, with DMS-114, with NCI/ADR-RES and in the assay with KM-20L2 was > 100 µM (inactive) each time. For the same compound, the GI50 in the assay on UO-31 and with OVCAR-4 was > 100 µM (inactive) each time.
`CC1CCC(O)/C=C/C(=O)OC(C)C(O)/C=C/C(=O)O1` (stereo not given): the GI50 is > 100 µM (inactive) in the assay with UACC-257; > 100 µM (inactive) in the assay with SN12C; > 100 µM (inactive) in the assay on DU-145; > 100 µM (inactive) in the assay with IGROV-1; > 100 µM (inactive) with PC-3; 25.4 µM (inactive) in the assay with CCRF-CEM. Besides, the GI50 in the assay on 786-0 was > 92.9 µM (inactive); in the assay on TK-10 it was > 83.8 µM (inactive); in the assay with SW-620, 60.4 µM (inactive); in the assay with NCI/ADR-RES, > 100 µM (inactive); in the assay on MDA-MB-435, > 100 µM (inactive); in the assay with UO-31 it was > 100 µM (inactive). For the same compound, the GI50 in the assay with T47D and in the assay with OVCAR-4 was > 100 µM (inactive) each time.
For `NCCCCN(CCCN)Cc1ccccc1`, the GI50 is > 100 µM (inactive) in the assay on UACC-257; > 100 µM (inactive) in the assay with SN12C; > 100 µM (inactive) in the assay with DU-145; 60 µM (inactive) with IGROV-1; > 100 µM (inactive) with PC-3; > 100 µM (inactive) in the assay with CCRF-CEM. Also, the GI50 in the assay on 786-0, with TK-10, in the assay on SW-620, in the assay with NCI/ADR-RES, in the assay on MDA-MB-435 and with UO-31 was > 100 µM (inactive) in each case. The GI50 with T47D and in the assay on OVCAR-4 was > 100 µM (inactive) throughout.
`COc1ccc(-c2nnc(-c3nsc4ccccc34)o2)cc1`: the GI50 in the assay on UACC-257 was > 100 µM (inactive); with SN12C, 59.4 µM (inactive); with IGROV-1 it was 58.6 µM (inactive); with DMS-273 it was 71.4 µM (inactive); with M19-MEL, > 100 µM (inactive); in the assay with TK-10, > 100 µM (inactive). Further, the GI50 with SNB-78 was > 100 µM (inactive); with SW-620, > 100 µM (inactive); in the assay on DMS-114 it was 58.1 µM (inactive); in the assay on KM-20L2 it was > 100 µM (inactive); in the assay with UO-31 it was 25.2 µM (inactive); in the assay on OVCAR-4 it was 65.9 µM (inactive).
